The text below walks through data of patent US20220348592A1, “FUSED HETEROCYCLIC DERIVATIVES” (Janssen Sciences Ireland Unlimited Company, priority 2019, published 2022).

Like-named read-outs stand apart in the source and are kept apart here.

The nature of series [1]: Cytotoxicity in HepG2.117 cells, ATPlite Luminescence Assay. It counts as cell-based, human. As to conditions: human, incubated for 3 days, mean value, read-out: TOX-HepG2.117 CC50 (μM, mean value). Here is the method:
Cytotoxicity of the compounds was tested using HepG2 or HepG2.117 cells, incubated for 3 days in the presence of compounds. The viability of the cells was assessed using the PERKIN ELMER ATPlite Luminescence Assay System.”

Series [2] deals with HBV. Put plainly: Anti-HBV activity: intracellular HBV DNA by real-time PCR in HepG2.117 cell line. Format: cell-based, Hepatitis B virus. As to conditions: Hepatitis B virus, read-out: HBV-AVE-HepG2.117 EC50 (μM, mean value). Here is the method: The anti HBV activity was measured using the HepG2.117 cell line, a stable, inducibly HBV producing cell line, which replicates HBV in the absence of doxicycline (Tet-off system). The HepG2 cell line is available from ATCC® under number HB-8065. Transfection of the HepG2 cell line can be as described in Sun and Nassal 2006 Journal of Hepatology 45 (2006) 636-645 “Stable HepG2- and Huh7-based human hepatoma cell lines for efficient regulated expression of infectious hepatitis B virus”.
For the antiviral assay, HBV replication was induced, followed by a treatment with serially diluted compound in 96-well plates. After 3 days of treatment, the antiviral activity was determined by quantification of intracellular HBV DNA using real-time PCR and an HBV specific primer set and probe.

The mark [3] stands for this setting: 72 h, HepG2.117 cells, 3 days of treatment, intracellular HBV DNA by real-time PCR, mean value.

With `CN1O[C@H](CO)Cn2nc3c(c2C1=O)CN(C(=O)c1ccc(Cl)c(Cl)c1)CC3` (single isomer, unassigned) [Compound 46, (4*S)-10-(3,4-Dichlorobenzoyl)-4-(hydroxymethyl)-2-methyl-4,5,8,9,10,11-hexahydropyrido-[4′,3′:3,4]pyrazolo[5,1-d][1,2,5]oxadiazepin-1(2H)-one], the CC50 at 3 days in series [1] is over 50 µM. In addition, the EC50 in series [2] (setting [3]) amounted to 0.505 µM.

Turning to `O=C1NCCn2nc3c(c21)CN(C(=O)c1ccc(Cl)c(Cl)c1)CC3` [Compound 1, 2-(3,4-Dichlorobenzoyl)-1,2,3,4,8,9-hexahydropyrido[4′,3′:3,4]pyrazolo[1,5-a]pyrazin-10(7H)-one], the CC50 at 3 days in series [1] was over 50 µM. For the same molecule, the EC50 in series [2] (setting [3]) was determined as 9.63 µM.

On to `O=C(c1ccc(Cl)c(Cl)c1)N1CCc2nn3c(c2C1)C(=O)N(Cc1ccccc1)CC3` [Compound 3, 9-Benzyl-2-(3,4-dichlorobenzoyl)-1,2,3,4,8,9-hexahydropyrido[4′,3′:3,4]pyrazolo[1,5-a]pyrazin-10(7H)-one], for which, in series [1], the CC50 at 3 days stood at 25.3 µM. Besides, the concentration giving a half-maximal response (EC50) in series [2] (HepG2.117, 72 h) was 0.188 µM.

For `COc1ccc(CN2CCn3nc4c(c3C2=O)CN(C(=O)c2ccc(Cl)c(Cl)c2)CC4)cc1` [Compound 4, 2-(3,4-Dichlorobenzoyl)-9-[(4-methoxyphenyl)methyl]-1,2,3,4,8,9-hexahydropyrido[4′,3′:3,4]-pyrazolo[1,5-a]pyrazin-10(7H)-one], the CC50 at 3 days in series [1] was 17.9 µM. For the same molecule, the EC50 in series [2] (setting [3]) is 0.091 µM.

With `CC(c1ccncc1)N1CCn2nc3c(c2C1=O)CN(C(=O)c1ccc(Cl)c(Cl)c1)CC3` (stereo not drawn) [Compound 5, 2-(3,4-Dichlorobenzoyl)-9-[1-(pyridin-4-yl)ethyl]-1,2,3,4,8,9-hexahydropyrido[4′,3′:3,4-]pyrazolo[1,5-a]pyrazin-10(7H)-one], the CC50 at 3 days in series [1] is over 50 µM. For the same molecule, the EC50 in series [2] (setting [3]) amounted to 0.213 µM.

Regarding `O=C(c1ccc(Cl)c(Cl)c1)N1CCc2nn3c(c2C1)C(=O)N(Cc1nccs1)CC3` [Compound 7, 2-(3,4-Dichlorobenzoyl)-9-[(1,3-thiazol-2-yl)methyl]-1,2,3,4,8,9-hexahydropyrido[4′,3′:3,4]-pyrazolo[1,5-a]pyrazin-10(7H)-one], the CC50 at 3 days in series [1] is over 50 µM. Besides, the EC50 in series [2] (setting [3]) came out at 0.399 µM.

Turning to `O=C(c1ccc(Cl)c(Cl)c1)N1CCc2nn3c(c2C1)C(=O)N(Cc1c[nH]c2ccccc12)CC3` [Compound 8, 2-(3,4-Dichlorobenzoyl)-9-[(1H-indol-3-yl)methyl]-1,2,3,4,8,9-hexahydropyrido[4′,3′:3,4]-pyrazolo[1,5-a]pyrazin-10(7H)-one], the CC50 at 3 days in series [1] stood at 10.8 µM. In series [2] (setting [3]), the EC50 is under 0.039 µM.

As for `O=C(c1ccc(Cl)c(Cl)c1)N1CCc2nn3c(c2C1)C(=O)N(Cc1cccc2[nH]ccc12)CC3` [Compound 9, 2-(3,4-Dichlorobenzoyl)-9-[(1H-indol-4-yl)methyl]-1,2,3,4,8,9-hexahydropyrido[4′,3′:3,4]-pyrazolo[1,5-a]pyrazin-10(7H)-one], in series [1], the CC50 at 3 days turned out to be 16.4 µM. In series [2] (setting [3]), the EC50 stood at 0.054 µM.

In the case of `O=C(c1ccc(Cl)c(Cl)c1)N1CCc2nn3c(c2C1)C(=O)N(Cc1ccc(OC(F)F)cc1)CC3` [Compound 10, 2-(3,4-Dichlorobenzoyl)-9-{[4-(difluoromethoxy)phenyl]methyl}-1,2,3,4,8,9-hexahydropyrido-[4′,3′:3,4]pyrazolo[1,5-a]pyrazin-10(7H)-one], the half-maximal cytotoxic concentration (CC50) at 3 days in series [1] worked out at 7.26 µM. In addition, the EC50 in series [2] (setting [3]) amounted to 0.062 µM.

For the molecule `COc1ccc(CN2CCn3nc4c(c3C2=O)CN(C(=O)c2ccc(Cl)c(Cl)c2)[C@H](C)C4)cc1` [Compound 11, (3R)-2-(3,4-Dichlorobenzoyl)-9-[(4-methoxyphenyl)methyl]-3-methyl-1,2,3,4,8,9-hexahydro-pyrido[4′,3′:3,4]pyrazolo[1,5-a]pyrazin-10(7H)-one], the CC50 at 3 days in series [1] turned out to be 8.43 µM. Further, the EC50 in series [2] (setting [3]) was found to be 0.054 µM.

With `C[C@@H]1Cc2nn3c(c2CN1C(=O)c1ccc(Cl)c(Cl)c1)C(=O)N(Cc1ccc(F)cc1)CC3` [Compound 12, (3R)-2-(3,4-Dichlorobenzoyl)-9-[(4-fluorophenyl)methyl]-3-methyl-1,2,3,4,8,9-hexahydro-pyrido[4′,3′:3,4]pyrazolo[1,5-a]pyrazin-10(7H)-one], the CC50 at 3 days in series [1] came out at 25.3 µM. Further, the EC50 in series [2] (setting [3]) worked out at 0.066 µM.

Turning to `C[C@@H]1Cc2nn3c(c2CN1C(=O)c1ccc(Cl)c(Cl)c1)C(=O)N(Cc1ccc(OC(F)(F)F)cc1)CC3` [Compound 14, (3R)-2-(3,4-Dichlorobenzoyl)-3-methyl-9-{[4-(trifluoromethoxy)phenyl]methyl}-1,2,3,4,8,9-hexahydropyrido[4′,3′:3,4]pyrazolo[1,5-a]pyrazin-10(7H)-one], in series [1], the cytotoxic concentration (CC50) at 3 days turned out to be 6.96 µM. Moreover, in series [2] (setting [3]), the EC50 was found to be 0.085 µM.

For the molecule `C[C@@H]1Cc2nn3c(c2CN1C(=O)c1ccc(Cl)c(Cl)c1)C(=O)N(Cc1ccccn1)CC3` [Compound 15, (3R)-2-(3,4-Dichlorobenzoyl)-3-methyl-9-[(pyridin-2-yl)methyl]-1,2,3,4,8,9-hexahydropyrido-[4′,3′:3,4]pyrazolo[1,5-a]pyrazin-10(71)-one], in series [1], the CC50 at 3 days was over 50 µM. The EC50 in series [2] (setting [3]) was 0.055 µM.

Take `C[C@@H]1Cc2nn3c(c2CN1C(=O)c1ccc(Cl)c(Cl)c1)C(=O)N(Cc1cccnc1)CC3` [Compound 16, (3R)-2-(3,4-Dichlorobenzoyl)-3-methyl-9-[(pyridin-3-yl)methyl]-1,2,3,4,8,9-hexahydropyrido-[4′,3′:3,4]pyrazolo[1,5-a]pyrazin-10(7H)-one]: the 50% cytotoxic concentration (CC50) at 3 days in series [1] is over 50 µM. The EC50 in series [2] (setting [3]) worked out at 0.079 µM.

With `C[C@@H]1Cc2nn3c(c2CN1C(=O)c1ccc(Cl)c(Cl)c1)C(=O)N(Cc1ccncc1)CC3` [Compound 17, (3R)-2-(3,4-Dichlorobenzoyl)-3-methyl-9-[(pyridin-4-yl)methyl]-1,2,3,4,8,9-hexahydropyrido-[4′,3′:3,4]pyrazolo[1,5-a]pyrazin-10(7H)-one], in series [1], the CC50 at 3 days was over 50 µM. In series [2] (HepG2.117, 72 h), the EC50 was found to be 0.436 µM.

As for `C[C@@H]1Cc2nn3c(c2CN1C(=O)c1ccc(Cl)c(Cl)c1)C(=O)N(Cc1ccnn1C)CC3` [Compound 18, (3R)-2-(3,4-Dichlorobenzoyl)-3-methyl-9-[(1-methyl-1H-pyrazol-5-yl)methyl]-1,2,3,4,8,9-hexahydropyrido[4′,3′:3,4]pyrazolo[1,5-a]pyrazin-10(7H)-one], the CC50 at 3 days in series [1] is over 50 µM. Besides, the EC50 in series [2] (setting [3]) turned out to be 0.252 µM.

Consider `C[C@@H]1Cc2nn3c(c2CN1C(=O)c1ccc(Cl)c(Cl)c1)C(=O)N(Cc1ccn(C)n1)CC3` [Compound 19, (3R)-2-(3,4-Dichlorobenzoyl)-3-methyl-9-[(1-methyl-1H-pyrazol-3-yl)methyl]-1,2,3,4,8,9-hexahydropyrido[4′,3′:3,4]pyrazolo[1,5-a]pyrazin-10(7H)-one], for which, in series [1], the CC50 at 3 days is over 50 µM. Also, in series [2] (setting [3]), the EC50 was found to be 0.079 µM.

As for `C[C@@H]1Cc2nn3c(c2CN1C(=O)c1ccc(Cl)c(Cl)c1)C(=O)N(Cc1cc[nH]n1)CC3` [Compound 20, (3R)-2-(3,4-Dichlorobenzoyl)-3-methyl-9-[(1H-pyrazol-3-yl)methyl]-1,2,3,4,8,9-hexahydro-pyrido[4′,3′:3,4]pyrazolo[1,5-a]pyrazin-10(7H)-one], the CC50 at 3 days in series [1] is over 50 µM. Moreover, the EC50 in series [2] (setting [3]) worked out at 0.108 µM.
